Counter-ions that a name gives are not always drawn.
Tested on: inflammatory cells in rodents
Test: not given
Details: in vitro; prior art; cited from earlier work

SMILES | activity of inflammatory cells in rodents
COc1ccc(C2CNC(=O)C2)cc1OC1CCCC1 (stereo not shown) [rolipram] | inhibits the activity of inflammatory cells in rodents: inhibition of the synthesis of mediators by mastocytes, eosinophil and basophil polymorphonuclear leukocytes and monocytes; inhibition of chemotaxis and of the degranulation of polymorphonuclear leukocytes

Tested on: not given
Test: not given
Details: prior art; cited from earlier work

SMILES | undesirable effects | therapeutic index
COc1ccc(C2CNC(=O)C2)cc1OC1CCCC1 (stereo not shown) [rolipram] | undesirable effects of the type involving nausea and vomiting | 
Cn1c(=O)c2[nH]cnc2n(C)c1=O [theophylline] | undesirable effects such as nausea and headaches | low therapeutic index

Biological target: PDE 4
Test: Inhibition of PDE 4 compared with rolipram, enzyme preparation obtained from the line U937
Type: biochemical, human
Details: ratio to rolipram on the same enzymatic preparation; PDE 4 from U937 line; inhibitor 0.1 to 100 μM
Experimental: The capacity of the compounds of formula (I) of the invention to inhibit cyclic nucleotide phosphodiesterases is evaluated by measuring their IC50 (concentration necessary to inhibit the enzymatic activity by 50%). In the case of PDEs 4, this value is compared to the IC50 of rolipram, a PDE 4-specific inhibitor, relative to the IC50 of rolipram on the IC50 of the product to be tested with respect to the same enzymatic preparation.
The various types of phosphodiesterase are obtained partially purified on a DEAE-cellulose column from guinea pig trachea and dog aorta according to a method adapted from W. J. Thompson et al., 1979, Advances in Cyclic Nucleotide Research, Vol. 10: 69-92, ed. G. Brooker et al. Raven Press, New York, and from P. J. Silver et al., 1988, Eur. J. Pharmacol. 150: 85-94, and from the U937 cell line of human origin, according to a method adapted from T. J. Torphy et al., 1992, J. Pharm. Exp. Ther. 263: 1195-1205.
Measurement of the enzymatic activity for the various types of PDE, and in particular for the PDEs 4, is then made according to a method also adapted from W. J. Thompson, Ibidem.
In order to determine the IC50, the enzymatic activity is measured in the presence of the inhibitor over a range of concentrations from 0.1 to 100 μM.
The following table illustrates the inhibitory activity of PDE 4 when compared with that of rolipram on an enzyme preparation obtained from the line U937.

SMILES | IC50 rolipram / IC50 example
Nc1cc2c3c(c1)C(c1ccccc1)=N[C@@H](NC(=O)c1ccncc1)C(=O)N3CC2 [12A (salt)] | 5.7
O=C(N[C@@H]1N=C(c2ccccc2)c2cc(O)cc3c2N(CC3)C1=O)c1cc2ccccc2cn1 [Example 1, (3R)-Isoguinoline-3-carboxylic acid (9-hydroxy-4-oxo-1-phenyl-3,4,6,7-tetrahydro-[1,4]diazepino[6,7,1-hi]indol-3-yl)amide] | 1.9
Nc1cc2c3c(c1)C(c1ccccc1)=N[C@@H](NC(=O)c1cc(Cl)c(N)c(Cl)c1)C(=O)N3CC2 [Example 4, (3R)-4-Amino-N-(9-amino-4-oxo-1-phenyl-3,4,6,7-tetrahydro[1,4]diazepino [6,7,1-hi]indol-3-yl)-3,5-dichlorobenzamide] | 33.0
COc1cc(N)c(Cl)cc1C(=O)N[C@@H]1N=C(c2ccccc2)c2cc(N)cc3c2N(CC3)C1=O [Example 8, (3R)-4-Amino-N-(9-amino-4-oxo-1-phenyl-3,4,6,7-tetrahydro[1,4]diazepino[6,7,1-hi]indol-3-yl)-5-chloro-2-methoxybenzamide] | 3.4
Nc1cc2c3c(c1)C(c1ccccc1)=N[C@@H](NC(=O)c1ccncc1)C(=O)N3CC2 [Example 12, (3R)-N-(9-Amino-4-oxo-1-phenyl-3,4,6,7-tetra-hydro[1,4]diazepinor [6,7,1-hi]indol-3-yl)-isonicotinamide] | 2.0
CC(C)(C)OC(=O)Nc1cnccc1C(=O)N[C@@H]1N=C(c2ccccc2)c2cc(N)cc3c2N(CC3)C1=O [Example 13, (3R)-3-t-Butyloxycarbonylamino-N-(9-amino-4-oxo-1-phenyl-3,4,6,7-tetrahydro[1,4]diazepino[6,7,1-hi]indol-3-yl)isonicotinamide] | 1.6
Nc1cc2c3c(c1)C(c1ccccc1)=N[C@@H](NC(=O)c1cc4ccccc4cn1)C(=O)N3CC2 [Example 18, (3R)-Isoquinoline-3-carboxylic acid (9-amino-4-oxo-1-phenyl-3,4,6,7-tetrahydro[1,4]-diazepino[6,7,1-hi]indol-3-yl)amide] | 11.0
Nc1cc2c3c(c1)C(c1ccccc1)=N[C@@H](NC(=O)c1cnc4ccccc4c1)C(=O)N3CC2 [Example 19, (3R)-Quinoline-3-carboxylic acid (9-amino-4-oxo-1-phenyl-3,4,6,7-tetrahydro[1,4]-diazepino[6,7,1-hi]indol-3-yl)amide] | 1.4
Cc1cc2nnc(C(=O)N[C@@H]3N=C(c4ccccc4)c4cc(N)cc5c4N(CC5)C3=O)c(C)n2n1 [Example 20, (3R)-4,7-Dimethylpyrazolo[5,1-c][1,2,4]triazine-3-carboxylic acid (9-amino-4-oxo-1-phenyl-3,4,6,7-tetrahydro[1,4]-diazepino[6,7,1-hi]indol-3-yl)amide] | 1.1
CN(C)c1cc2c3c(c1)C(c1ccccc1)=N[C@@H](NC(=O)c1cc(Cl)c(N)c(Cl)c1)C(=O)N3CC2 [Example 21, (3R)-4-Amino-3,5-dichloro-N-(9-dimethylamino-4-oxo-1-phenyl-3,4,6,7-tetrahydro[1,4]-diazepino[6,7,1-hi]indol-3-yl)benzamide] | 3.3
Nc1cc2c3c(c1)C(c1ccccc1)=N[C@@H](NC(=O)c1cc4ccccc4o1)C(=O)N3CC2 [Example 30, (3R)N-(9-amino-4-oxo-1-phenyl-3,4, 67-tetrahydro[1,4]diazepino[6,7,1-hi]indol-3-yl)-2-benzofuranecarboxamide] | 15.0
Cc1cc2nnc(C(=O)N[C@@H]3N=C(c4ccccc4)c4cc(N5CCCC5)cc5c4N(CC5)C3=O)c(C)n2n1 [Example 32, (3R) 4,7-dimethyl-pyrazolo[5,1-c][1,2,4]triazine-3-carboxylic acid [4-oxo-1-pheny-9-(pyrrolidin-1-yl)-3,4,6,7-tetrahydro[1,4]diazepino[6,7,1-hi]indol-3-yl)-amide] | 4.0

— patent US5972927A, “Diazepinoindoles as phosphodiesterase 4 inhibitors” (Jouveinal, priority 1996, dated 1999)
